Results as given in ChEMBL document CHEMBL4411306, “High-throughput screening of novel pyruvate dehydrogenase kinases inhibitors and biological evaluation of their in vitro and in vivo antiproliferative activity” (Eur J Med Chem, 2019).
Calls of active or inactive are those of the source. The rule behind the calls is not given here.

What was measured:
[1] = target: T1, [Pyruvate dehydrogenase (acetyl-transferring)] kinase isozyme 2, mitochondrial (Homo sapiens, UniProt Q15119); test: Inhibition of recombinant human His6-tagged N-terminal PDHK2 (A8 to T399 residues) expressed in baculovirus expression system using PDC as substrate incubated for 10 mins followed by ATP addition measured at 12 secs interval for 20 mins
[2] = Inhibition of porcine PDK assessed as activation of pyruvate dehydrogenase complex measured after 3 mins; design: species or system Sus scrofa
NCI-H1975 [3] = test: Antitumor activity against human NCI-H1975 cells xenografted in nude mouse assessed as tumor growth inhibition administered orally once daily for 21 days; assay type: functional, cell-based
[4] = Toxicity in nude mouse xenografted with human NCI-H1975 cells assessed as effect on body weight at 10 to 20 mg/kg, po administered once daily for 21 days measured twice weekly during compound dosing; assay type: organism-based; conditions: in vivo, 504 h
[5] = target: [Pyruvate dehydrogenase (acetyl-transferring)] kinase isozyme 4, mitochondrial (Homo sapiens, UniProt Q16654); test: Inhibition of recombinant human His-tagged PDK4 expressed in Escherichia coli using PDH E1 as substrate measured after 30 mins by Kinase-Glo luminescence assay
[Pyruvate dehydrogenase (acetyl-transferring)] kinase isozyme 4, mitochondrial, sequence (Q16654 whole entry): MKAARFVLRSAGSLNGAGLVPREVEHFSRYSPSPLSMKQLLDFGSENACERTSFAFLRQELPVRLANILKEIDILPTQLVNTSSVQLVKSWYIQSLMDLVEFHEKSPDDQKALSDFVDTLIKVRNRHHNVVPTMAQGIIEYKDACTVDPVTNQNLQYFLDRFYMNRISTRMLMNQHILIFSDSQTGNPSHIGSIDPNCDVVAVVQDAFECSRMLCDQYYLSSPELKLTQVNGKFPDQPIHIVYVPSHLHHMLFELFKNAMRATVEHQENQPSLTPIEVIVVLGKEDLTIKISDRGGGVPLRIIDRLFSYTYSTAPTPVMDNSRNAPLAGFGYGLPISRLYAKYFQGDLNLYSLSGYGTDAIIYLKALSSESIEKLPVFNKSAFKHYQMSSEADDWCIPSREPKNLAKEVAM

NCI-H1975 [6] = test: Induction of apoptosis in human NCI-H1975 cells assessed as late apoptotic cells at 10 uM after 12 hrs by Annexin V-FITC/propidium iodide staining based flow cytometry (reference value: 3.7%); assay type: functional
NCI-H1975 [7] = test: Induction of apoptosis in human NCI-H1975 cells assessed as early apoptotic cells at 0.5 uM after 12 hrs by Annexin V-FITC/propidium iodide staining based flow cytometry (reference value: 1.8%); assay type: functional
NCI-H1975 [8] = test: Induction of apoptosis in human NCI-H1975 cells assessed as early apoptotic cells at 2 uM after 12 hrs by Annexin V-FITC/propidium iodide staining based flow cytometry (reference value: 1.8%); assay type: functional
Mus musculus = test: In-vivo of inhibition of PDH phosphorylation in tumor of nude mouse xenografted with human NCI-H1975 cells at 10 to 20 mg/kg, po administered once daily for 21 days measured post last dose by Western blot analysis; assay type: functional, organism-based
NCI-H1975 [9] = test: Induction of apoptosis in human NCI-H1975 cells after 12 hrs by Annexin V-FITC/propidium iodide staining based flow cytometry; assay type: functional, cell-based
NCI-H1975 [10] = test: Induction of apoptosis in human NCI-H1975 cells assessed as live cells at 4 uM after 12 hrs by Annexin V-FITC/propidium iodide staining based flow cytometry (reference value: 92.7%); assay type: functional
Heat shock protein HSP90 = Heat shock protein HSP90 (Homo sapiens, UniProt P07900+P08238); test: Inhibition of human HSP90 measured after 30 mins by fluorescence polarization assay; assay type: protein assay
NCI-H1975 [11] = test: Induction of apoptosis in human NCI-H1975 cells assessed as late apoptotic cells at 4 uM after 12 hrs by Annexin V-FITC/propidium iodide staining based flow cytometry (reference value: 3.7%); assay type: functional
NCI-H1975 [12] = test: Induction of apoptosis in human NCI-H1975 cells assessed as early apoptotic cells at 10 uM after 12 hrs by Annexin V-FITC/propidium iodide staining based flow cytometry (reference value: 1.8%); assay type: functional
NCI-H1975 [13] = test: Induction of apoptosis in human NCI-H1975 cells assessed as necrotic cells at 4 uM after 12 hrs by Annexin V-FITC/propidium iodide staining based flow cytometry (reference value: 1.8%); assay type: functional
[14] = Permeability across human Caco2 cells by liquid scintillation counting method; assay type: ADME, cell-based; conditions: caco-2
NCI-H1975 [15] = test: Antiproliferative activity against human NCI-H1975 cells assessed as reduction in cell viability after 72 hrs by MTT assay; assay type: functional
[16] = target: T2, [Pyruvate dehydrogenase (acetyl-transferring)] kinase isozyme 1, mitochondrial (Homo sapiens, UniProt Q15118); test: Inhibition of recombinant human His-tagged PDK1 expressed in Escherichia coli using PDH E1 as substrate measured after 30 mins by Kinase-Glo luminescence assay
T2 sequence (Q15118 whole entry): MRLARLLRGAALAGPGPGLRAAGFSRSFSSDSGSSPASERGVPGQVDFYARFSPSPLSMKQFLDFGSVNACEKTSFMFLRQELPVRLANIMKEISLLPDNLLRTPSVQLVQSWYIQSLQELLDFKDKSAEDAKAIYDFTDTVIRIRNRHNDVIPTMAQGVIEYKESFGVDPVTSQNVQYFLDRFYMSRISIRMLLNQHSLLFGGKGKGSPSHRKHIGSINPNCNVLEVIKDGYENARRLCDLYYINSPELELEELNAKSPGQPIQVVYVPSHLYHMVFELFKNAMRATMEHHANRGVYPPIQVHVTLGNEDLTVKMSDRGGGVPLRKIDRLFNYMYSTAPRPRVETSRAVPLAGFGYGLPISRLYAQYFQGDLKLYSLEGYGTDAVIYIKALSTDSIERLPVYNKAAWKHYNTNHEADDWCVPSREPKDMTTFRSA

NCI-H1975 [17] = test: Induction of apoptosis in human NCI-H1975 cells assessed as early apoptotic cells at 4 uM after 12 hrs by Annexin V-FITC/propidium iodide staining based flow cytometry (reference value: 1.8%); assay type: functional
NCI-H1975 [18] = test: Antitumor activity against human NCI-H1975 cells xenografted in nude mouse assessed as reduction in tumor weight administered orally once daily for 21 days; assay type: functional, cell-based
[19] = target: T2, [Pyruvate dehydrogenase (acetyl-transferring)] kinase isozyme 1, mitochondrial; test: Inhibition of PDK1 in human NCI-H1975 cells assessed as switch of pyruvate metabolism from lactate production to oxidative phosphorylation by measuring increase in ROS production at high concentration after 4 hrs by DCFH-DA dye based assay; assay type: cell-based
HCT-116 = test: Antiproliferative activity against human HCT116 cells assessed as reduction in cell viability after 72 hrs by MTT assay; assay type: functional
[20] = target: T1, [Pyruvate dehydrogenase (acetyl-transferring)] kinase isozyme 2, mitochondrial; test: Inhibition of recombinant human His-tagged PDK2 expressed in Escherichia coli using PDH E1 as substrate measured after 30 mins by Kinase-Glo luminescence assay
NCI-H1650 = test: Antiproliferative activity against human NCI-H1650 cells assessed as reduction in cell viability after 72 hrs by MTT assay; assay type: functional
A549 = test: Antiproliferative activity against human A549 cells assessed as reduction in cell viability after 72 hrs by MTT assay; assay type: functional
NCI-H1975 [21] = test: Induction of apoptosis in human NCI-H1975 cells assessed as live cells at 0.5 uM after 12 hrs by Annexin V-FITC/propidium iodide staining based flow cytometry (reference value: 92.7%); assay type: functional
NCI-H1975 [22] = test: Induction of apoptosis in human NCI-H1975 cells assessed as late apoptotic cells at 0.5 uM after 12 hrs by Annexin V-FITC/propidium iodide staining based flow cytometry (reference value: 3.7%); assay type: functional
NCI-H1975 [23] = test: Induction of apoptosis in human NCI-H1975 cells assessed as late apoptotic cells at 2 uM after 12 hrs by Annexin V-FITC/propidium iodide staining based flow cytometry (reference value: 3.7%); assay type: functional
MCF7 = test: Antiproliferative activity against human MCF7 cells assessed as reduction in cell viability after 72 hrs by MTT assay; assay type: functional
NCI-H1975 [24] = test: Inhibition of PDK in human NCI-H1975 cells assessed as reduction in PDH phosphorylation at 10 uM after 12 hrs by Western blot analysis; assay type: cell-based
[25] = Antiproliferative activity against human BEAS2B cells assessed as reduction in cell viability after 72 hrs by MTT assay; assay type: cell-based; conditions: BEAS-2B cells, read-out: GC50
A-375 = test: Antiproliferative activity against human A375 cells assessed as reduction in cell viability after 72 hrs by MTT assay; assay type: functional
[26] = target: T2, [Pyruvate dehydrogenase (acetyl-transferring)] kinase isozyme 1, mitochondrial; test: Inhibition of PDK1 in human NCI-H1975 cells assessed as switch of pyruvate metabolism from lactate production to oxidative phosphorylation by measuring by measuring reduction in lactate formation at 10 uM measured after 4 hrs; assay type: cell-based
NCI-H1975 [27] = test: Induction of apoptosis in human NCI-H1975 cells assessed as necrotic cells at 0.5 uM after 12 hrs by Annexin V-FITC/propidium iodide staining based flow cytometry (reference value: 1.8%); assay type: functional
[28] = target: T2, [Pyruvate dehydrogenase (acetyl-transferring)] kinase isozyme 1, mitochondrial; test: Inhibition of PDK1 in human NCI-H1975 cells assessed as switch of pyruvate metabolism from lactate production to oxidative phosphorylation by measuring increase in oxygen consumption rates at 1 to 10 uM measured after 4 hrs by XFe24 extracellular flux analyzer based assay; assay type: cell-based
NCI-H1975 [29] = test: Induction of apoptosis in human NCI-H1975 cells assessed as live cells at 2 uM after 12 hrs by Annexin V-FITC/propidium iodide staining based flow cytometry (reference value: 92.7%); assay type: functional
[30] = target: T2, [Pyruvate dehydrogenase (acetyl-transferring)] kinase isozyme 1, mitochondrial; test: Binding affinity to recombinant human His-tagged PDK1 expressed in Escherichia coli by isothermal calorimetry
NCI-H1975 [31] = test: Induction of apoptosis in human NCI-H1975 cells assessed as necrotic cells at 2 uM after 12 hrs by Annexin V-FITC/propidium iodide staining based flow cytometry (reference value: 1.8%); assay type: functional
[32] = target: [Pyruvate dehydrogenase (acetyl-transferring)] kinase isozyme 3, mitochondrial (Homo sapiens, UniProt Q15120); test: Inhibition of recombinant human His-tagged PDK3 expressed in Escherichia coli using PDH E1 as substrate measured after 30 mins by Kinase-Glo luminescence assay
[Pyruvate dehydrogenase (acetyl-transferring)] kinase isozyme 3, mitochondrial, sequence (Q15120 whole entry): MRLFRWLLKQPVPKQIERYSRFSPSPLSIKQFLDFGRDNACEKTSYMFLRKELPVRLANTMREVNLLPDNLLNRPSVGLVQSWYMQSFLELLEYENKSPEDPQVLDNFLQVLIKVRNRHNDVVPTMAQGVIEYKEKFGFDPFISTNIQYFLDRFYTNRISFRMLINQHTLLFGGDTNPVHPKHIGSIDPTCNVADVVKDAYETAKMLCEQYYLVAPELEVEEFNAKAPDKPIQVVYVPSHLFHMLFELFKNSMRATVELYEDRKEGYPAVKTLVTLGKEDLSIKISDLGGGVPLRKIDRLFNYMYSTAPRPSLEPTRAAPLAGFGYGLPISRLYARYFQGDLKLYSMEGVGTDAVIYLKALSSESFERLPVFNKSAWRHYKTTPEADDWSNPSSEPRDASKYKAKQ

NCI-H1975 [33] = test: Induction of apoptosis in human NCI-H1975 cells assessed as live cells at 10 uM after 12 hrs by Annexin V-FITC/propidium iodide staining based flow cytometry (reference value: 92.7%); assay type: functional
[34] = target: T2, [Pyruvate dehydrogenase (acetyl-transferring)] kinase isozyme 1, mitochondrial; test: Inhibition of PDK1 in human NCI-H1975 cells assessed as switch of pyruvate metabolism from lactate production to oxidative phosphorylation by measuring decrease in extracellular acidification rate at 1 to 10 uM measured after 4 hrs by XFe24 extracellular flux analyzer based assay; assay type: cell-based
HepG2 = test: Antiproliferative activity against human HepG2 cells assessed as reduction in cell viability after 72 hrs by MTT assay; assay type: functional
NCI-H1975 [35] = test: Induction of apoptosis in human NCI-H1975 cells assessed as necrotic cells at 10 uM after 12 hrs by Annexin V-FITC/propidium iodide staining based flow cytometry (reference value: 1.8%); assay type: functional

CC(C)c1ccc(COc2ccc(CC(=O)NCCN)cc2Cl)cc1
IC50 [1]: 2000 nM

Cc1cccc(NC(=O)CSc2n[nH]c(-c3ccccc3O)n2)c1C
EC50 [2]: 340 nM
TGI (NCI-H1975 [3]): Dose-dependent effect
Activity [4]: Non-Toxic
IC50 [5]: 2500 nM
Activity (NCI-H1975 [6]): 11.1%
Activity (NCI-H1975 [7]): 2%
Activity (NCI-H1975 [8]): 3.1%
inhibition (Mus musculus): Active
Activity (NCI-H1975 [9]): Dose-dependent effect
Activity (NCI-H1975 [10]): 85.5%
IC50 (Heat shock protein HSP90): 780 nM
Activity (NCI-H1975 [11]): 10.6%
Activity (NCI-H1975 [12]): 13.1%
Activity (NCI-H1975 [13]): 1.2%
Papp [14]: 8.51 ×10⁻⁶ cm/s
Activity (NCI-H1975 [15]): Dose-dependent effect
GC50 (NCI-H1975 [15]): 2300 nM
IC50 [16]: 290 nM
Activity (NCI-H1975 [17]): 2.7%
Activity (NCI-H1975 [18]): Dose-dependent effect
inhibition [19]: Active
Activity (HCT-116): Dose-dependent effect
GC50 (HCT-116): 12700 nM
IC50 [20]: 3800 nM
Activity (NCI-H1650): Dose-dependent effect
GC50 (NCI-H1650): 3100 nM
Activity (A549): Dose-dependent effect
GC50 (A549): 7900 nM
Activity (NCI-H1975 [21]): 92.3%
Activity (NCI-H1975 [22]): 4.8%
Activity (NCI-H1975 [23]): 5%
Activity (MCF7): Dose-dependent effect
GC50 (MCF7): 9500 nM
reduction in PDH phosphorylation (qualitative) (NCI-H1975 [24]): Active
GI50 at 72 h [25]: > 20000 nM
Activity (A-375): Dose-dependent effect
GC50 (A-375): 6400 nM
inhibition [26]: Active
Activity (NCI-H1975 [27]): 0.9%
inhibition [28]: Active
Activity (NCI-H1975 [29]): 90.3%
Kd [30]: 870 nM
Activity (NCI-H1975 [31]): 1.6%
IC50 [32]: 5700 nM
Activity (NCI-H1975 [33]): 73.4%
inhibition [34]: Active
Activity (HepG2): Dose-dependent effect
GC50 (HepG2): 5200 nM
Activity (NCI-H1975 [35]): 2.4%
